Reference: patent US9499550B2 (BRISTOL-MYERS SQUIBB COMPANY, priority 2012, dated 2016)
pEC50: −log10 of the molar value. Like-named read-outs stand apart in the source and are kept apart here.

Experiments:
[1] = system: HCV genotype 1a (H77 strain) replicon in HUH-7 cells; assay: HCV replicon luciferase reporter assay, genotype 1a; type: cell-based; settings: Hepatitis C virus, Huh-7, 72 h, 3 days incubation, read-out: LE_1a (EC50, range)
Method in brief: (§1)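 Replicon inhibition for both genotypes was measured as Renilla luciferase signal (EnduRen, 7.5 μM final, 2 h) after 3-day, 37° C exposure of replicon-bearing HUH-7 cells in 4% FCS DMEM, 0.5% DMSO. The 1b construct carries S1179I; the 1a H77 construct carries P1496L and S2204I. Twenty-point, 3-fold dilutions were fitted four-parametrically for EC50, and CC50 was taken from multiplexed Cell Titer-Blue.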

[2] = system: HCV genotype 1b (Con1) replicon in HUH-7 cells; assay: HCV replicon luciferase reporter assay, genotype 1b; type: cell-based; settings: Hepatitis C virus, Huh-7, 72 h, 3 days incubation, read-out: LE_1b (EC50, range)
Method in brief: as §1

[3] = HCV genotype 1a replicon luciferase
[4] = HCV genotype 1b replicon luciferase
[5] = GETYPE1A, HCV genotype 1a replicon luciferase
[6] = GETYPE1B, HCV genotype 1b replicon luciferase
[7] = HCV genotype 1a replicon luciferase assay, range class
[8] = HCV genotype 1b replicon luciferase assay, range class

| SMILES | pEC50 [1, 3] | pEC50 [2, 4] | other results |
| --- | --- | --- | --- |
| CCOc1cc2ccnc(O[C@@H]3C[C@H]4C(=O)N[C@]5(C(=O)NS(=O)(=O)C6CC6)C[C@H]5/C=C\CC[C@@H](C)C[C@@H](CC)[C@H](NC(=O)OC(C)(C)C(C)(F)F)C(=O)N4C3)c2cc1F [Compound 5409, 3,3-difluoro-2-methylbutan-2-yl((2R,6S,7R,9R,13aS,14aR,16aS,Z)-14a-((cyclopropylsulfonyl)carbamoyl)-2-((6-ethoxy-7-fluoroisoquinolin-1-yl)oxy)-7-ethyl-9-methyl-5,16-dioxo-1,2,3,5,6,7,8,9,10,11,13a,14,14a,15,16,16a-hexadecahydrocyclopropa[e]pyrrolo[1,2-a][1,4]diazacyclopentadecin-6-yl)carbamate] | 8.30 to 9.00 | 9.00 to 9.29 | – |
| CC[C@@H]1C[C@H](C)CC/C=C\[C@@H]2C[C@@]2(C(=O)NS(=O)(=O)C2(C)CC2)NC(=O)[C@@H]2C[C@@H](Oc3nc(OC)cc4cc(OC)c(F)cc34)CN2C(=O)[C@H]1NC(=O)OC(C)(C)C(C)(F)F [Compound 1188] | – | – | pEC50 [1, 5]: 8.30 to 9.00; pEC50 [2, 6]: 9.00 to 9.29 |
| COc1ccc2c(O[C@@H]3C[C@H]4C(=O)N[C@]5(C(=O)NS(=O)(=O)C6(C)CC6)C[C@H]5/C=C\CC[C@@H](C)C[C@@H](C)[C@H](NC(=O)OC(C)(C)C)C(=O)N4C3)ncc(N3CCN(CC(F)F)CC3)c2c1 [Compound 4173] | – | – | pEC50 [1, 5]: > 8.26; pEC50 [2, 6]: > 8.26 |
| CC[C@@H]1C[C@H](C)CC/C=C\[C@@H]2C[C@@]2(C(=O)NS(=O)(=O)C2(CF)CC2)NC(=O)[C@@H]2C[C@@H](Oc3ncc(N4CCOCC4)c4ccccc34)CN2C(=O)[C@H]1NC(=O)OC(C)(C)C [Compound 5441, tert-butyl ((2R,6S,7R,9R,13aS,14aR,16aS,Z)-7-ethyl-14a-(((1-(fluoromethyl)cyclopropyl)sulfonyl)carbamoyl)-9-methyl-2-((4-morpholinoisoquinolin-1-yl)oxy)-5,16-dioxo-1,2,3,5,6,7,8,9,10,11,13a,14,14a,15,16,16a-hexadecahydrocyclopropa[e]pyrrolo[1,2-a][1,4]diazacyclopentadecin-6-yl)carbamate] | 8.30 to 9.00 | 8.30 to 9.00 | – |
| COc1ccc2c(O[C@@H]3C[C@H]4C(=O)N[C@]5(C(=O)NS(=O)(=O)C6(CF)CC6)C[C@H]5/C=C\CC[C@H](C)C[C@@H](C)[C@H](NC(=O)OC(C)(C)C(F)(F)F)C(=O)N4C3)nc(N(C)C)nc2c1 [Compound 3009, 1,1,1-trifluoro-2-methylpropan-2-yl((2R,6S,7R,9S,13aS,14aR,16aS,Z)-2-((2-(dimethylamino)-7-methoxyquinazolin-4-yl)oxy)-14a-(((1-(fluoromethyl)cyclopropyl)sulfonyl)carbamoyl)-7,9-dimethyl-5,16-dioxo-1,2,3,5,6,7,8,9,10,11,13a,14,14a,15,16,16a-hexadecahydrocyclopropa[e]pyrrolo[1,2-a][1,4]diazacyclopentadecin-6-yl)carbamate] | – | – | pEC50 [1, 7]: 6.99 to 8.32; pEC50 [2, 8]: 6.99 to 8.32 |
| COc1ccc2c(O[C@@H]3C[C@H]4C(=O)N[C@]5(C(=O)NS(=O)(=O)C6(C)CC6)C[C@H]5/C=C\CC[C@@H](C)C[C@@H](C)[C@H](NC(=O)NC(C)(C)C)C(=O)N4C3)nccc2c1 [Compound 5179, (2R,6S,7R,9R,13aS,14aR,16aS,Z)-6-(3-(tert-butyl)ureido)-2-((6-methoxyisoquinolin-1-yl)oxy)-7,9-dimethyl-N-((1-methylcyclopropyl)sulfonyl)-5,16-dioxo-1,2,3,5,6,7,8,9,10,11,13a,14,14a,15,16,16a-hexadecahydrocyclopropa[e]pyrrolo[1,2-a][1,4]diazacyclopentadecine-14a-carboxamide] | > 8.26 | > 8.26 | – |
| [2H]C([2H])([2H])C(OC(=O)N[C@@H]1C(=O)N2C[C@H](Oc3nc(-c4ccc(OC(C)C)cn4)cc4cc(OC)ccc34)C[C@H]2C(=O)N[C@]2(C(=O)NS(=O)(=O)C3CC3)C[C@H]2/C=C\CC[C@@H](C)C[C@H]1C)(C([2H])([2H])[2H])C(F)(F)F [Compound 5205, 1,1,1,3,3,3-hexadeutero-2-(trifluoromethyl)propan-2-yl((2R,6S,7R,9R,13aS,14aR,16aS,Z)-14a-((cyclopropylsulfonyl)carbamoyl)-2-((3-(5-isopropoxypyridin-2-yl)-6-methoxyisoquinolin-1-yl)oxy)-7,9-dimethyl-5,16-dioxo-1,2,3,5,6,7,8,9,10,11,13a,14,14a,15,16,16a-hexadecahydrocyclopropa[e]pyrrolo[1,2-a][1,4]diazacyclopentadecin-6-yl)carbamate] | > 8.26 | > 8.26 | – |
| COc1ccc2c(O[C@@H]3C[C@H]4C(=O)N[C@]5(C(=O)NS(=O)(=O)C6CC6)C[C@H]5/C=C\CC[C@H](C)C[C@@H](C)[C@H](NC(=O)OC(C)(C)C(F)(F)F)C(=O)N4C3)nc(-c3ccc(N4CCOCC4)cc3)cc2c1 [Compound 5196, 1,1,1-trifluoro-2-methylpropan-2-yl((2R,6S,7R,9S,13aS,14aR,16aS,Z)-14a-((cyclopropylsulfonyl)carbamoyl)-2-((6-methoxy-3-(4-morpholinophenyl)isoquinolin-1-yl)oxy)-7,9-dimethyl-5,16-dioxo-1,2,3,5,6,7,8,9,10,11,13a,14,14a,15,16,16a-hexadecahydrocyclopropa[e]pyrrolo[1,2-a][1,4]diazacyclopentadecin-6-yl)carbamate] | > 8.26 | > 8.26 | – |
| CCN(C)c1cc2cc(OC)ccc2c(O[C@@H]2C[C@H]3C(=O)N[C@]4(C(=O)NS(=O)(=O)C5(CF)CC5)C[C@H]4/C=C\CC[C@H](C)C[C@@H](C)[C@H](NC(=O)OC(C)(C)C(F)(F)F)C(=O)N3C2)n1 [Compound 1136, 1,1,1-trifluoro-2-methylpropan-2-yl((2R,6S,7R,9S,13aS,14aR,16aS,Z)-2-((3-(ethyl(methyl)amino)-6-methoxyisoquinolin-1-yl)oxy)-14a-(((1-(fluoromethyl)cyclopropyl)sulfonyl)carbamoyl)-7,9-dimethyl-5,16-dioxo-1,2,3,5,6,7,8,9,10,11,13a,14,14a,15,16,16a-hexadecahydrocyclopropa[e]pyrrolo[1,2-a][1,4]diazacyclopentadecin-6-yl)carbamate] | – | – | pEC50 [1, 7]: < 7.06; pEC50 [2, 8]: < 7.06 |
| C[C@H]1CC/C=C\[C@@H]2C[C@@]2(C(=O)NS(=O)(=O)C2(CF)CC2)NC(=O)[C@@H]2C[C@@H](Oc3nccc4c5c(ccc34)OCCO5)CN2C(=O)[C@@H](NC(=O)OC(C)(C)C(F)(F)F)[C@H](C)C1 [Compound 5322, 1,1,1-trifluoro-2-methylpropan-2-yl((2R,6S,7R,9S,13aS,14aR,16aS,Z)-2-((2,3-dihydro-[1,4]dioxino[2,3-f]isoquinolin-7-yl)oxy)-14a-(((1-(fluoromethyl)cyclopropyl)sulfonyl)carbamoyl)-7,9-dimethyl-5,16-dioxo-1,2,3,5,6,7,8,9,10,11,13a,14,14a,15,16,16a-hexadecahydrocyclopropa[e]pyrrolo[1,2-a][1,4]diazacyclopentadecin-6-yl)carbamate] | > 8.26 | > 8.26 | – |
| CC(C)Oc1ccc2nc(C(F)(F)F)c(O[C@@H]3C[C@H]4C(=O)N[C@]5(C(=O)NS(=O)(=O)C6(C)CC6)C[C@H]5/C=C\CC[C@@H](C)C[C@@H](C)[C@H](NC(=O)OC(C)(C)C(F)(F)F)C(=O)N4C3)nc2c1 [Compound 4336] | – | – | pEC50 [1, 5]: 9.00 to 9.29; pEC50 [2, 6]: 9.00 to 9.29 |
| CCOc1cc2ccnc(O[C@@H]3C[C@H]4C(=O)N[C@]5(C(=O)NS(=O)(=O)C6CC6)C[C@H]5/C=C\CC[C@@H](C)C[C@@H](C)[C@H](NC(=O)OC(C)(C)C)C(=O)N4C3)c2cc1F [Compound 5399, tert-butyl ((2R,6S,7R,9R,13aS,14aR,16aS,Z)-14a-((cyclopropylsulfonyl)carbamoyl)-2-((6-ethoxy-7-fluoroisoquinolin-1-yl)oxy)-7,9-dimethyl-5,16-dioxo-1,2,3,5,6,7,8,9,10,11,13a,14,14a,15,16,16a-hexadecahydrocyclopropa[e]pyrrolo[1,2-a][1,4]diazacyclopentadecin-6-yl)carbamate] | 9.00 to 9.29 | 9.30 to 10.00 | – |
| CCN(C)c1cc2cc(OC)ccc2c(O[C@@H]2C[C@H]3C(=O)N[C@]4(C(=O)NS(=O)(=O)C5(CF)CC5)C[C@H]4/C=C\CC[C@@H](C)C[C@@H](C)[C@H](NC(=O)OC(C)(C)C)C(=O)N3C2)n1 [Compound 1135, tert-butyl ((2R,6S,7R,9R,13aS,14aR,16aS,Z)-2-((3-(ethyl(methyl)amino)-6-methoxyisoquinolin-1-yl)oxy)-14a-(((1-(fluoromethyl)cyclopropyl)sulfonyl)carbamoyl)-7,9-dimethyl-5,16-dioxo-1,2,3,5,6,7,8,9,10,11,13a,14,14a,15,16,16a-hexadecahydrocyclopropa[e]pyrrolo[1,2-a][1,4]diazacyclopentadecin-6-yl)carbamate] | – | – | pEC50 [1, 7]: 6.99 to 8.32; pEC50 [2, 8]: > 8.26 |
| COCCOc1cnc(O[C@@H]2C[C@H]3C(=O)N[C@]4(C(=O)NS(=O)(=O)C5(C)CC5)C[C@H]4/C=C\CC[C@H](C)C[C@@H](C)[C@H](NC(=O)OC4COC4)C(=O)N3C2)c2ccc(OC)cc12 [Compound 1156, oxetan-3-yl((2R,6S,7R,9S,13aS,14aR,16aS,Z)-2-((6-methoxy-4-(2-methoxyethoxyl)isoquinolin-1-yl)oxy)-7,9-dimethyl-14a-(((1-methylcyclopropyl)sulfonyl)carbamoyl)-5,16-dioxo-1,2,3,5,6,7,8,9,10,11,13a,14,14a,15,16,16a-hexadecahydrocyclopropa[e]pyrrolo[1,2-a][1,4]diazacyclopentadecin-6-yl)carbamate] | – | – | pEC50 [1, 7]: 6.99 to 8.32; pEC50 [2, 8]: 6.99 to 8.32 |
